Data taken from patent publication US8084497B2, “C-(2-phenyl-cyclohexyl)-methylamine compounds for therapy of fibromyalgia” (Gruenenthal GmbH, priority 2003, dated 2011).
Structures can show the parent of a compound that is named as a salt. Marks after values point to notes of the source that are not given here.

Tests used:
human μ-opiate receptor = biological target: T1, human μ-opiate receptor (Homo sapiens, UniProt P35372); assay: Affinity for the human μ-opiate receptor ([3H]-naloxone displacement, CHO-K1 membrane preparation, SPA); format: binding
T1 construct: purchased Perkin Elmer, Zaventem, Belgium RB-HOM; host or cells: CHO-K1 cells (recombinant expression)
T1 sequence (P35372 whole entry): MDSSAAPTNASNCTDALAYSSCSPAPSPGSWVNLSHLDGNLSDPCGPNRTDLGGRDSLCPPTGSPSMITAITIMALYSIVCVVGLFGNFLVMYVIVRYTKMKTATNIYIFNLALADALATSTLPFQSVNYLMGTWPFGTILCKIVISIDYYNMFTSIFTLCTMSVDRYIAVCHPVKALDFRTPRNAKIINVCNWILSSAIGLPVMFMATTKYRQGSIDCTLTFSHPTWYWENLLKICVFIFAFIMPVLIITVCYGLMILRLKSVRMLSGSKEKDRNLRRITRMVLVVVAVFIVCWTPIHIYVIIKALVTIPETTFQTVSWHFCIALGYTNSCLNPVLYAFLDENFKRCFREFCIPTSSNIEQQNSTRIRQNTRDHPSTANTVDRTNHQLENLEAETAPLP
Description: Investigation of the affinity for the human μ-opiate receptor The receptor affinity for the human μ-opiate receptor is determined in a homogeneous set-up in microtitre plates. For this, dilution series of the substances to be tested are incubated with a receptor membrane preparation (15-40 μg protein/250 μl incubation batch) of CHO-K1 cells which express the human μ-opiate receptor (RB-HOM receptor membrane preparation from Perkin Elmer, Zaventem, Belgium) in the presence of 1 nmol/l of the radioactive ligand [^3H]-naloxone (NET719, Perkin Elmer, Zaventem, Belgium) and 1 mg WGA-SPA-Beads (wheat germ agglutinin SPA beads from Amersham/Pharmacia, Freiburg, Germany) in a total volume of 250 μl for 90 minutes at room temperature. 50 mmol/l Tris-HCl supplemented with 0.05% sodium azide and with 0.06% bovine serum albumin is used as the incubation buffer. 25 μmol/l naloxone are additionally added for determination of the non-specific binding. After the end of the ninety-minute incubation time, the microtitre plates are centrifuged for 20 minutes at 1,000 g and the radioactivity is measured in a […] (Microbeta-Trilux, PerkinElmer Wallac, Freiburg, Germany). The percentage displacement of the radioactive ligand from its binding to the human μ-opiate receptor is determined at a concentration of the test substances of 1 μmol/l and stated as the percentage inhibition of the specific binding. Starting from the percentage displacement by various concentrations of the test substances, IC50 inhibitory concentrations which cause a 50 percent displacement of the radioactive ligand are calculated. By conversion by means of the Cheng-Prusoff relationship, Ki values for the test substances are obtained (Cheng and Prusoff 1973).

5-HT reuptake = biological target: T2, 5-HT reuptake (Rattus norvegicus, UniProt P31652); assay: 5-HT reuptake inhibition in rat brain synaptosomes (medulla+pons); format: biochemical
T2 construct: synaptosomes are freshly isolated from areas of the rat brain; from tissue; host or cells: P2 synaptosome fraction from the medulla+pons region of male rat brain
T2 sequence (P31652 whole entry): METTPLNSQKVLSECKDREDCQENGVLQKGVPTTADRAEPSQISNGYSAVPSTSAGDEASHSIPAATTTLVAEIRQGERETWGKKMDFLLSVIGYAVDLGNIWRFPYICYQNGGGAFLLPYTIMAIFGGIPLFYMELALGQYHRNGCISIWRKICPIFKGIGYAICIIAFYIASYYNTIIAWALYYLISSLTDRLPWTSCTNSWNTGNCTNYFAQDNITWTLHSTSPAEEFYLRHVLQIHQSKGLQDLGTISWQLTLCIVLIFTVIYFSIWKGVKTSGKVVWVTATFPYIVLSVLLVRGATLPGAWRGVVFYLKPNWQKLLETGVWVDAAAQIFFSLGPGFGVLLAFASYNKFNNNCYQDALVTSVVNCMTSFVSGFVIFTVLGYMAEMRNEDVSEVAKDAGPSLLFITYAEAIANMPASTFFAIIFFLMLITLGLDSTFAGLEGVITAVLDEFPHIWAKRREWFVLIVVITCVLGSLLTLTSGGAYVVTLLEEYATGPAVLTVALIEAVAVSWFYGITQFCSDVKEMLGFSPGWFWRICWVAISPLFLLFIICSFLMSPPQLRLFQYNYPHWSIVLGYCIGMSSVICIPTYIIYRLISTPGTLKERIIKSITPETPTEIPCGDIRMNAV
Source text: In order to be able to carry out these in vitro studies, synaptosomes are freshly isolated from areas of the rat brain. […] For the NA reuptake these vesicular particles are isolated from the hypothalamus, and for the 5-HT reuptake from the medulla+pons region of male rat brains.
The IC50 values were obtained with the aid of the computer program “Figure P” (version 6.0, Biosoft, Cambridge, England). […] The computer program “Ligand” (version 4, Biosoft, England) was used to display KD values.

rats = assay: Elevated plus maze test on rats (onset of anxiolytic actions); format: in vivo, rat
Description: In the elevated plus maze test the actions of substances on the endogenous anxiety of rodents towards open and elevated places are determined.
The apparatus was placed approx. 1 m above the floor and comprised four arms arranged in a cross, two opposite arms being open and two closed. […] The duration of stay and the number of entries into the open arms were evaluated. The group size was 10-15 animals. The single administration of the test substances or of the control vehicle took place 30 min before testing.
It is reported in the literature that benzodiazepines induce an increased duration of stay and entries into the open compartment. […] The typical disadvantages of monoamine reuptake inhibitors in the therapy of anxiety patients, namely the delayed onset of action and the initially anxiogenic-like effects, can thus be followed in the elevated plus maze test on rats. The elevated plus maze test is therefore a suitable animal model for the investigation of new therapies which have the aim of accelerating the onset of action of monoamine reuptake inhibitors.
Statistical evaluation: Anova plus post-hoc Dunnett's test (Significance level: p<0.05; *: significant versus vehicle; #: significant versus intrinsic effect of 16 mg/kg i.p. 3-(2-dimethylaminomethyl-cyclohexyl)-phenol).

[1] = 8 mg/kg i.p., single administration 30 min before testing
[2] = 16 mg/kg i.p., single administration 30 min before testing
[3] = 2 mg/kg i.p., single administration
[4] = 1 mg/kg i.p., single administration

SMILES	Ki (human μ-opiate receptor) [nM]	Ki (5-HT reuptake) [nM]	Open arms: Duration of stay (rats; [2])	Open arms: Number of entries (rats; [2])	anxiolytic action (in words) (rats; single administration)	duration of stay in the open arms (in words) (rats; single administration)	number of entries into the open arms (in words) (rats; single administration)	other results
CN(C)CC1CCCCC1c1cccc(O)c1 (centres unmarked) [3-(2-Dimethylaminomethyl-cyclohexyl)-phenol, hydrochloride]	140	50	–	–	–	–	–	–
CN(C)CC1CCCCC1c1cccc(O)c1 (centres unmarked) [3-(2-Dimethylaminomethyl-cyclohexyl)-phenol]	–	–	118.2* sec	8.5	significant anxiolytic actions	significant increase	clear increase	ratio between the μ-opioid component and the monoamine reuptake inhibition (in words) (human μ-opiate receptor; versus 5-HT and NA reuptake inhibition): balanced ratio; Open arms: Duration of stay (rats; [1]): 29.0 s; Open arms: Number of entries (rats; [1]): 3.2; anxiogenic-like action (in words) (rats; acute administration): In no case was an anxiogenic-like action induced
CNCC1CCCCC1c1cccc(O)c1 (centres unmarked) [3-(2-Methylaminomethyl-cyclohexyl)-phenol hydrochloride]	870	5670	–	–	–	–	–	–
CN1C(=O)CN=C(c2ccccc2)c2cc(Cl)ccc21 [Diazepam]	–	–	–	–	–	increase	increase	Open arms: Duration of stay (rats; [3]): 77.7* sec; Open arms: Number of entries (rats; [3]): 8.1*
C=CCN1CC[C@]23c4c5ccc(O)c4O[C@H]2C(=O)CC[C@@]3(O)[C@H]1C5 [Naloxone]	–	–	–	–	–	–	–	Open arms: Duration of stay (rats; [4]): 28.6 s; Open arms: Number of entries (rats; [4]): 4.5
COc1ccc(C(CN(C)C)C2(O)CCCCC2)cc1 (centres unmarked) [Venlafaxine]	–	–	66.9 s	4.6	no anxiolytic action	–	–	μ-Opioid receptor affinity (Ki values) (human μ-opiate receptor; [3H]-naloxone, CHO-K1 membranes): inactive
